Measurements published in the supplement of paper PMC11451515.

What was measured:
Assay in all cases: AUC of viability dose-response curve (% viability x log10 dose units); higher = less sensitive
Conditions in all cases: 48 h
[1] = system: NOMO1
Method in brief: (§1)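 Leukemia cells adapted to each medium were seeded in 1536-well plates (500 or 1000 cells/well). They were dosed with library compounds in DMSO at 11 threefold doses, 47 μM to 0.79 nM, for 48 h at 37°C. CellTiter-Glo One luminescence was normalised per plate to DMSO and cell-free wells. Area under the curve was integrated by trapezoidal rule over log10 doses on a four-parameter log-logistic fit; curves exceeding full viability were scaled and curves failing quality control removed.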

[2] = system: SEM cells
Method in brief: as §1

[3] = system: P12-Ichikawa
Method in brief: as §1

[4] = RPMI 5 mM glucose + 10% dialyzed FBS

SMILES	AUC of viability dose-response curve ([1]; HPLM + 10% dialyzed FBS)	AUC of viability dose-response curve ([1]; RPMI 5 mM glucose + 10% FBS)	AUC of viability dose-response curve [1, 4]	AUC of viability dose-response curve ([2]; HPLM + 10% dialyzed FBS)	AUC of viability dose-response curve ([2]; RPMI 5 mM glucose + 10% FBS)	AUC of viability dose-response curve [2, 4]	AUC of viability dose-response curve ([3]; HPLM + 10% dialyzed FBS)	AUC of viability dose-response curve ([3]; RPMI 5 mM glucose + 10% FBS)	AUC of viability dose-response curve [3, 4]
CCc1cc(Nc2nccc(-c3c(-c4ccc(OC)c(C(=O)Nc5c(F)cccc5F)c4)nc4ccccn34)n2)c(OC)cc1N1CCC(N2CCN([S+](C)(=O)[O-])CC2)CC1	459	464	457	423	435	386	453	451	453
Oc1ccc2c3c1O[C@H]1c4[nH]c5c(c4C[C@@]4(O)[C@@H](C2)N(CC2CC2)CC[C@]314)C[C@@]1(O)[C@H]2Cc3ccc(O)c4c3[C@@]1(CCN2CC1CC1)[C@H]5O4	448	443	472	422	429	454	463	440	428
Nc1ccccc1NC(=O)c1ccc(CNC(=O)OCc2cccnc2)cc1	326	351	334	313	308	310	350	354	347
COc1cnc(N[S+](=O)([O-])c2ccc(N)cc2)nc1	445	457	448	428	459	443	449	459	460
CC[C@H](CC[C@@H](C)[C@H]1CC[C@H]2[C@@H]3C\C=C/4C[C@@H](O)CC[C@]4(C)[C@H]3CC[C@]12C)C(C)C	420	449	431	452	469	467	448	453	446
COc1cccc2cc(-c3nc(C4CCC(C(=O)O)CC4)n4ncnc(N)c34)[nH]c12 (centres undefined)	338	358	359	315	327	329	292	307	308
CNC(=O)c1ccc(-c2cnc3ncc(Cc4ccc5ncccc5c4)n3n2)cc1F	460	454	449	458	466	463	469	461	460
OC1=C(O)C2=C(\C=C/C(=O)O2)C=C1	454	469	465	423	430	436	470	466	467
OC[C@H]1O[C@@H](O[C@@H]2[C@@H](CO)O[C@](O)(CO)[C@H]2O)[C@H](O)[C@@H](O)[C@H]1O	448	453	444	458	460	457	456	447	436
O=NN(CCCl)C(=O)NC1CCCCC1	474	472	475	445	475	433	468	453	462
COc1ccc(C[C@@H](C)[C@@H](C)Cc2ccc(OC)c(OC)c2)cc1OC	326	315	328	336	364	320	355	353	354
C/C=C(/C)C(=O)O[C@H]1C(C)=C2[C@H]([C@@H]1OC(=O)CCCCCCC)[C@@](C)(OC(C)=O)C[C@H](OC(=O)CCC)[C@@]1(O)[C@H]2OC(=O)[C@@]1(C)O	206	224	211	211	183	174	364	297	257
Cc1c(CN2CCN(C(=O)[C@H](C)O)CC2)sc2c(N3CCOCC3)nc(-c3cnc(N)nc3)nc12	318	352	308	285	304	284	401	338	345
O=C([O-])C(O)Cc1ccc(O)c(O)c1 (centres undefined)	447	416	434	398	413	387	453	452	438
CC(C)C(C)/C=C/C(C)C1CCC2C3=CC=C4CC(O)CCC4(C)C3CCC21C (centres undefined)	474	426	445	383	454	458	460	468	457
CN[S+](=O)([O-])Cc1ccc2[nH]cc(CCN(C)C)c2c1	454	443	454	442	431	456	467	457	460

SMILES	AUC of viability dose-response curve ([1]; HPLM + 10% dialyzed FBS)	AUC of viability dose-response curve ([1]; RPMI 5 mM glucose + 10% FBS)	AUC of viability dose-response curve [1, 4]	AUC of viability dose-response curve ([2]; HPLM + 10% dialyzed FBS)	AUC of viability dose-response curve ([2]; RPMI 5 mM glucose + 10% FBS)	AUC of viability dose-response curve [2, 4]	AUC of viability dose-response curve ([3]; HPLM + 10% dialyzed FBS)	AUC of viability dose-response curve ([3]; RPMI 5 mM glucose + 10% FBS)	AUC of viability dose-response curve [3, 4]
COc1cc2c(cc1-c1c(C)noc1C)ncc1[nH]c(=O)n([C@H](C)c3ccccn3)c12	373	382	382	336	336	323	380	396	393
CNC1CCC(N(Cc2cccc(-c3ccncc3)c2)C(=O)c2sc3ccccc3c2Cl)CC1 (centres undefined)	330	326	381	310	267	279	319	326	302
CC(=O)Nc1ccc(OC[C@](C)(O)C(=O)Nc2ccc([N+](=O)[O-])c(C(F)(F)F)c2)cc1	375	388	404	346	399	411	416	384	383
OC1=CC=C(C=C1)\C2=C\OC3=C(C=CC(=C3)O)C2=O	473	459	470	472	467	467	446	446	457
CC(=O)O.Cc1c(-c2ccc(O)cc2)n(Cc2ccc(OCCN3CCCCCC3)cc2)c2ccc(O)cc12	472	446	469	449	423	418	472	459	446
c1cncc(CN2CCC(n3ncc4c(N5CCOCC5)nc(-c5ccc6[nH]ccc6c5)nc43)CC2)c1	374	372	362	376	370	352	426	351	357
CC/C(=C(/c1ccc(O)cc1)c1ccc(OCCNC)cc1)c1ccccc1	443	459	452	410	412	405	432	414	405
CCCCCOC(=O)NC\1=N\C(=O)N(\C=C1F)[C@@H]2O[C@H](C)[C@@H](O)[C@H]2O	413	434	458	468	466	469	460	443	442
CC(=O)Oc1ccccc1C(=O)O	461	450	452	463	466	469	466	450	450
CC1(C)Cc2c(-c3ccccc3)c(-c3ccc(Cl)cc3)c(CC(=O)O)n2C1	454	454	458	451	425	407	444	451	466
C=C(C)[C@@H]1CC[C@]2(C(=O)O)CC[C@]3(C)[C@H](CC[C@@H]4[C@@]5(C)CC[C@H](O)C(C)(C)[C@@H]5CC[C@]43C)[C@@H]12	452	473	466	420	410	397	445	461	427
COC1=CC=CC2=C1C(=NC(=N2)C3=CC=CS3)NN4C(=O)\C=C(C)/C4=O	269	290	265	264	282	270	318	302	297
C[C@H]1[C@H](NC(=O)/C(=N/OC(C)(C)C(=O)O)c2csc(N)n2)C(=O)N1[S+](=O)([O-])O	455	475	445	468	471	450	470	471	467
COC1CCC(CC1)N(C(=O)C2CCC(C)CC2)C3=C(SC(=C3)\C4=C\CCCC4)C(O)=O (centres undefined)	442	446	454	455	449	441	438	451	450
CC1(C)O[C@@H]2C[C@H]3[C@@H]4CCC5=CC(=O)C=C[C@]5(C)[C@@]4(F)[C@@H](O)C[C@]3(C)[C@]2(C(=O)CO)O1	411	418	456	255	270	280	315	288	288
